From patent US11385234B2, “Methods and systems for detecting an analyte or classifying a sample” (Commonwealth Scientific and Industrial Research Organisation, priority 2012, dated 2022)

Legend:
[1] = target: GFP^2—MBP—RLuc2 (Escherichia coli, UniProt P0AEX9); assay: BRET^2 tagged MBP sugar assay, plate reader; type: binding; conditions: 0.1 mM maltose
Experimental: 1 μM purified protein was used for all the energy transfer assays (final volume of 100 μL). […] Purified protein was incubated with the sugar dissolved in double deionised water or water for 30 minutes at 28° C.
(§1) BRET ratios were calculated as the ratio of maximum acceptor emission intensity to maximum donor emission intensity.
All data analysis was carried out using GraphPad Prism (version 5 for Windows, Graphpad Software, San Diego, Calif., USA). All data will be reported as means± standard deviation (SD) unless otherwise stated in the text. Two-tailed unpaired t-tests will be performed using Graphpad prism. Statistical significance is defined as p<0.05.

[2] = target: T1, FLIPmal-2μ (FRET tagged MBP receptor) (Escherichia coli, UniProt P0AEX9); conditions: cited from earlier work
T1 construct: fused on or other part: FRET pair fused to the N- and C-terminus of MBP; From Fehr et al. 2002 these are a cyan and a yellow GFP variant

[3] = tested on: GFP^2—MBP—RLuc2 W140A; assay: BRET^2 tagged MBP W140A mutant, plate reader; type: binding; conditions: 0.1 mM maltose
Experimental: The W140 mutation was introduced into pRSET GFP^2—MBP—RLuc2 using site-directed mutagenesis (Stratagene) using primers C1 ([…]) (SEQ ID NO:11) and C2 ([…]) (SEQ ID NO:12). Nucleotide and amino acid sequences for BRET^2 tagged MBP receptor provided a SEQ ID NOs: 3 to 6).
1 μM purified protein was used for all the energy transfer assays (final volume of 100 μL). 1 μM purified protein was prepared by diluting the protein in phosphate buffer solution (PBS, 0.058 M […], 0.017 NaH2PO4, 0.068 M NaCl (pH 7.4)). Purified protein was incubated with the sugar dissolved in double deionised water or water for 30 minutes at 28° C. Following incubation 16.67 μM coelenterazine 400a was added and the signal was recorded immediately.
as §1

[4] = tested on: SGSR-113 (BRET^2 tagged str-113); assay: BRET^2 response of SGSR-113 to volatile ligands, plate based; type: biochemical, C. elegans
Description: (§2) SGSRs are chimaeras of C. elegans str-112, str-113, str-114, str-115, str-116 and str-114/113 with the BRET^2 tags GFP^2 and RLuc or RLuc2 inserted in the third intracellular loop and at the C-terminus, respectively. The positions of the third intracellular loops of STR proteins were predicted using “TMAP” an algorithm from “The Biology Workbench” (a web-based tool for prediction of transmembrane segments http.//seqtool.sdsc.edu). These were named SGSR-112, SGSR-113, SGSR-114/113, SGSR-114, SGSR-115 and SGSR-116.
(§3) Except for SGSR-112, which was commercially synthesised, SGSR expression cassettes were designed and made by introducing multiple restriction sites into the relevant gene-specific PCR primers. PCR products containing those sites were cloned into TOPO PCR vectors (Invitrogen) and then digested with the corresponding restriction enzymes (REs) and ligated into the expression cassettes.
(§4) The inventors selected a number of specific volatiles (including 1-hexanol, 1 butanol, butane-2,3-dione, 3-hydroxybutanone, 2-pentanone and 2 nonanone) for further testing based on GC-MS analysis of the headspace of OP50 bacteria grown on LB. […] This is the first time that a volatile ligand (or indeed any ligand) has been identified for a BRET-based GPCR sensor, in the absence of prior knowledge of the ligand based on research with the unmodified parental GPCR.

[5] = target: SGSR-112 (BRET^2 tagged str-112) (Caenorhabditis elegans, UniProt O16913); assay: BRET^2 response of SGSR-112 to volatile ligands, plate based; type: biochemical, C. elegans
Description: as §2, §3, §4

[6] = tested on: SGSR-114/113 (BRET^2 tagged str-114/113 chimera); assay: BRET^2 response of SGSR-114/113 to volatile ligands, plate based; type: biochemical, C. elegans; conditions: for detectable level: in vitro
Description: as §2, §3
The SGSR 114/113 chimera was constructed by modifying C. elegans SGSR-113 (by replacing the first fragment of str-13, 113-1 using the restriction sites NcoI and BspEI in the cassette with the corresponding fragment of str-114, str-114-1). Str114-1 contains the first 720 str-114 nucleotides of, corresponding to its first 240 amino acids and was amplified by high fidelity PCR using primers incorporating the restriction sites, NcoI at the 5′ end and BspEI at the 3′ end.
as §4

[7] = tested on: OGOR2; assay: Endpoint on-chip microfluidic diacetyl assay with OGOR2; type: biochemical, C. elegans
Experimental: Endpoint microfluidic assays were carried out on-chip in two inlet microfluidic mixer devices integrated with an optical detection chamber. […] OGOR and OGOR2 membrane pellets were resuspended in 1 mL of PBS, diluted as required and incubated at 28° C. for 45 minutes with diacetyl solution at concentrations ranging from 1 aM-1 μM. The preparation was introduced in the second inlet. On-chip mixing was initiated with an input flow rate of 400 μl/hr for each inlet.
(§5) BRET^2 signals were calculated as the ratio of emission intensity at 515 nm to that at 410 nm. All data are reported as the mean±standard deviation (SD) or mean±standard error of the mean (SEM) as described in the text. Curves were fitted with log [agonist] vs response curves with variable slopes following normalization of data, using Graphpad Prism version 5.03 for Windows. Two-tailed unpaired t-tests were carried out in Graphpad prism. Statistical significance was defined as p<0.05.

[8] = tested on: OGOR; assay: Diacetyl assay with original OGOR sensor (native RLuc), microwell; type: biochemical, C. elegans; conditions: original OGOR sensor incorporating native RLuc
Description: (§6) Chimaeric BRET^2 tagged odorant receptors have the BRET^2 components inserted into the third intracellular loop (IC3) and at the C-terminus of the C. elegans odorant receptor with green fluorescent protein, GFP^2 at IC3 and Renilla luciferase, RLuc at the C-terminus of the protein (OGOR). Using site-directed mutagenesis the RLuc2 mutations were introduced into the pYES-DEST-52 OGOR sequence. Primers 1 and 2 (Table 3) were used to introduce the mutation C124A and primer pair 3 and 4 was used to introduce the M185 V mutation to make the construct named OGOR2 (FIG. 18, SEQ ID NO:1, SEQ ID NO-2).
(§7) All ligand solutions were prepared directly in water. The OGOR concentration was normalized using GFP^2 intensity at 510 nm. Assays were carried out in 96-well plates (Perkin-Elmer) in a total volume of 100 μL in phosphate buffered saline. OGOR was incubated with each ligand for 45 minutes at 28° C. in wells sealed with Topseal-A™ (Packard).
Following the incubation, Coelenterazine 400a substrate (Biosynth) was added to a final concentration of 5 μM.
BRET^2 signals were calculated as the ratio of emission intensity at 515 nm to that at 410 nm. All data are reported as the mean±standard deviation (SD) or mean±standard error of the mean (SEM) as described in the text. […]

[9] = tested on: OGOR2 (ODR-10 receptor fused to RLuc2 and GFP^2); assay: Diacetyl assay with OGOR2, 96-well plate BRET^2; type: biochemical, C. elegans
Description: as §6
Yeast colonies were inoculated in 10 mL SCMM-U (S. cerevisiae minimal media, composition per 200 mL: 1.34 g […] without amino acids and 0.38 g yeast supplementation media without uracil) supplemented with 2% glucose and incubated overnight at 28° C. An aliquot of the overnight culture was used to inoculate SCMM-U supplemented with 2% raffinose and 2% galactose to a final O.D..600 of 0.4 and incubated for an additional 72 h at 15° C. with shaking at 200 rpm.
Cell cultures were centrifuged at 1500×g for 5 minutes at 4° C. Cells were resuspended in 1 mL of sterile water and centrifuged for 1 minute at 10,000×g. Cells were resuspended in 4 mL phosphate buffer solution (PBS). The cells were lysed by French press (˜18000 psi) and cellular debris was removed by centrifugation at 15000×g (4° C.) for 15 minutes. Following this the supernatant fraction was centrifuged at 40,000 rpm (Beckman Coulter L-80 ultra-centrifuge) for 1 hour at 4° C. The supernatant was decanted and the membrane pellet was resuspended in 1 mL of PBS and stored at 4° C. for 48 hrs.
as §7, with “(Packard). […]” for “(Packard).”
BRET^2 signals were calculated as the ratio of emission intensity at 515 nm to that at 410 nm. […]

[10] = tested on: OGOR2; assay: Diacetyl detection with highly diluted OGOR2, wide bore chamber and liquid light guide; type: biochemical, C. elegans; conditions: 1 μM diacetyl
Experimental: On-chip measurements were carried out with a microfluidic chip similar to that shown in FIG. 31A with two inlets, a passive mixing element and a detection chamber. An aluminium mirror was placed on top of the reaction chamber to enhance the BRET signal.
A number of variations were compared with the original set up (FIG. 31A). The diameter of the reaction chamber was increased to 4 mm (FIG. 34A) from an original diameter of 2 mm. The height of the reaction chamber was varied between 1 and 2 mm. A single optical fiber of diameter 0.4-1.0 mm (FIG. 31A) was replaced with a liquid light guide or fibre-optic bundle of 5 mm core diameter NA=0.59, feeding into a dichroic block (FIG. 34A), or a bifurcated light guide of trunk core diameter 6 mm branch core diameter of 4 mm (FIG. 37) or a multifurcated light guide of trunk core diameter 8 mm and branch core diameter 4 mm (FIGS. 38 and 40).
OGOR2 sensor solution was prepared at day 4 in PBS at high (100 and 50 times) dilution ratios from stock solution. Clz400a was prepared in PBS at 31.25 μM. When diacetyl was included, it was added to the OGOR2 sensor solution at a final concentration of 1 μM. For the control experiment, only DI water was added. The sensor tubes without and with diacetyl were both incubated at 28° C. in 30 min.

[11] = tested on: OGOR2; assay: Real-time on-chip microfluidic diacetyl assay with OGOR2; type: biochemical, C. elegans; conditions: 1 fM diacetyl, 290 nM protein, 12.5 μM substrate, flow rates 50, 100, 200 and 300 μl/hr
Experimental: On-chip real-time measurements were carried out in a three-inlet microfluidic mixer device integrated with an optical detection chamber. […] The second inlet contained diacetyl (2,3-butanedione) diluted to give a final concentration of 1 fM in PBS, or PBS only as a control. The third inlet was used to introduce sensor protein suspension, which was prepared by resuspending the membrane pellet describe above in 1 mL of PBS and further diluting as required. The on-chip mixing was initiated by using input flow rates ranging from 50-400 μl/hr.
as §5

Chain of SGSR-112 (BRET^2 tagged str-112) (O16913 entry or part of it): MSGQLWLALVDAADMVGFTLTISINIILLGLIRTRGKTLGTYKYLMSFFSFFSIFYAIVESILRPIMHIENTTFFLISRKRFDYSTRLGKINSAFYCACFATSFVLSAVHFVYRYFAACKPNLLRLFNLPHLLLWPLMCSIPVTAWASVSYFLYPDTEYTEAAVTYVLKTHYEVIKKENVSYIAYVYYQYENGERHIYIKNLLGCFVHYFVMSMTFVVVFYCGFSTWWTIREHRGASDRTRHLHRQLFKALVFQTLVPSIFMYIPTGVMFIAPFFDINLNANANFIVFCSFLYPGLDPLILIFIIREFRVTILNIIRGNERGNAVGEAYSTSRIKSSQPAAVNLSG

OC[C@H]1O[C@H](O[C@H]2[C@H](O)[C@@H](O)C(O)O[C@@H]2CO)[C@H](O)[C@@H](O)[C@@H]1O (mixture of isomers) [maltose]
incubation time at which BRET^2 response reached a maximum [1]: 30 min | signal change, FRET ([2]; Fehr et al., 2002): ~12% | linear range of FRET response ([2]; two log units): 0.26 to 21.12 µM | BRET^2 response to maltose [3]: abolished

CCCCCCO [1-hexanol]
detectable level ([4]; in vitro): parts per billion (nM) levels

CCCC(C)=O [2-pentanone]
EC50 [5]: 150 pM | BRET^2 response to volatile ligand ([5]; 1 μM of odorant): tested positive | BRET^2 response to volatile ligand ([6]; 1 μM of odorant): tested positive | detectable level [6]: parts per billion levels (nM) levels | BRET^2 response to volatile ligand ([4]; 1 μM of odorant): tested positive

CC(=O)C(C)=O [diacetyl, 2,3-butanedione]
decrease in BRET^2 signal ([7]; 10 fM diacetyl, microfluidic endpoint): 36.9% | EC50 ([7]; on-chip microfluidic endpoint): ~10 aM | detectable level [6]: parts per quadrillion (sub pM) levels | percentage change in BRET^2 signal in response to diacetyl [8]: 32% | decrease in BRET^2 signal ([9]; 1 μM diacetyl, microplate wells): 21.4% | EC50 ([9]; microwell plate): 11.4 aM | linear range of dose-dependent response ([9]; microwell plate, six log units): 10^−18 to 10^−12 M | Diacetyl-dependent reduction in BRET^2 ratio ([10]; 50 times sensor dilution): 14.7% | Diacetyl-dependent reduction in BRET^2 ratio ([10]; 100 times sensor dilution): 13.7% | decrease in BRET^2 ratio [11]: 27.4%
